# In US9352049B2, “Ligand-therapeutic agent conjugates, silicon-based linkers, and methods for making and using them” (Albany Molecular Research, Inc., priority 2013, dated 2016):
# Legend:
# [1] = Cleavage study of silyl conjugates at pH 4.5 (1:1 THF:0.05 M acetate buffer, 37° C., HPLC); type: physicochemical; settings: HPLC over 24 hours
# Experimental: (§1) To study the release properties of the silyl conjugates, the conjugates were subject to hydrolysis conditions at both pH 7.4 and pH 4.5 to simulate blood and endosomes/lysosome environments, respectively.
# The benzyl ester intermediates from Example 11 (step A), Example 12, Example 13, Example 14 (step A), and Example 15 were each dissolved in a 1:1 mixture of THF:0.05 M acetate buffer (pH 4.5) and heated to 37° C. with stirring. The mixture was analyzed with HPLC at T=1, 2, 3, 4, 5, 7 and 24 hours via Method B (see General Procedures in Example 1). Aliquots were quenched in a 1:1 acetonitrile:triethylamine solvent mixture to halt the hydrolysis reaction and allowed to stand up to 48 hours before HPLC analysis.
# [2] = Cleavage study of silyl conjugates at pH 7.4 (THF:0.01 M PBS buffer, 37° C.); type: physicochemical; settings: pH 7.4, 37° C., after 24 hours
# Experimental: as §1
# Example 12 and Example 15 were dissolved in THF:0.01 M PBS buffer (pH 7.4) and heated to 37° C. with stirring for over 20 hours. […] Additionally, Example 11 was trapped with methyl-3-mercaptopropionate to approximate a bioconjugate.
smiles,measurement,setting,value
"CC[C@]1(O)CC2CN(CCc3c([nH]c4ccccc34)[C@@](C(=O)OC)(c3cc4c(cc3OC)N(C)[C@H]3[C@@](O)(C(=O)OC)[C@H](O[Si]5(CCCCC(=O)NCCOCCN6C(=O)CC(SCCC(=O)OC)C6=O)CCCCC5)[C@]5(CC)C=CCN6CC[C@]43[C@@H]65)C2)C1 (stereo partly drawn) [Example 19, (3aR,3a^1R,4R,5S,10bR)-methyl 3a-ethyl-9-((5S,7R,9S)-5-ethyl-5-hydroxy-9-(methoxycarbonyl)-2,4,5,6,7,8,9,10-octahydro-1H-3,7-methano[1]azacycloundecino[5,4-b]indol-9-yl)-5-hydroxy-8-methoxy-4-((1-(5-((2-(2-(3-((3-methoxy-3-oxopropyl)thio)-2,5-dioxopyrrolidin-1-yl)ethoxy)ethyl)amino)-5-oxopentyl)silinan-1-yl)oxy)-6-methyl-3a,3a^1,4,5,5a,6,11,12-octahydro-1H-indolizino[8,1-cd]carbazole-5-carboxylate]",hydrolysis (release of desilylated parent vinca) in acidic media,[1],undergo parent vinca release at a rate comparable to the corresponding benzyl ester from Example 11 (step A)
same,desilylation at pH 7.4,[2],no desilylation was observed
